“And” between values parts separate entries of the source, which are not always exact repeats. Equal entries are not always repeated. Where two headings read alike, the source gives them in different places.
System: rainbow trout
Experiment: In vivo bioconcentration experiment with a mixture of anionic surfactants, flow-through aquaria, 10 °C, pH 7.8
Details: for Log BCF: determined with measured concentrations in water; for Concentration in fish: individual fish; for BCF (kinetic): kinetic BCF from measured concentrations in water
Description: The bioconcentration of a mixture of 10 anionic surfactants was measured in rainbow trout in water at pH 7.8. […] The experiment was conducted in flow-through aquaria with juvenile rainbow trout at 10 °C. Ethical approval for the experiments was obtained from Stockholms […] (decision 9967-2017). The fish, fish housing, fish handling, and procedure for introducing the mixture of […] chemicals were very similar to our previous study with cationic surfactants;[5] details are provided in Text S1. The experiment consisted of a 4-day exposure phase and a 7-day depuration phase. […] Water samples were collected and fish were sacrificed according to the schedule in Table S4. The water samples were collected just prior to the daily removal of feces from the aquarium. Triplicate samples were taken at each time point. […] The water/methanol mixture was analyzed using liquid chromatography-mass spectrometry (LC-MS)/MS as described below for fish. At each fish sampling, five fish were sacrificed. Following stunning and severance of the spinal cord, the whole fish were placed in a polyethylene bag, weighed, and immediately frozen at -20 °C. The weight of the individual fish at sacrifice was 24.0 ± 5.6 g. Three of the five fish from each time point were prioritized for analysis based on proximity to the median fish weight. Each fish was […] homogenized with an Ultra-turrax dispersing device. […] This mixture was homogenized in a bullet blender for 5 min and then placed in an ultrasound bath at 45 °C for 15 min. Following centrifugation for 15 min@3200 RCF, the supernatant was decanted and the extraction was repeated. The extracts were combined. For instrumental analysis, 5 μL of the fish extract or 60 μL of the water/methanol mixture (water samples) was separated on an Acquity UPLC BEH C18 column fitted with a BEH C18 pre-column and analyzed on a TSQ Quantiva triple quadrupole mass spectrometer. The mobile phase was methanol (10 mM ammonium acetate) and Milli-Q-filtered water (10 mM ammonium acetate) (see Table S5 for the liquid chromatography program). To avoid detergent blank peaks originating from cleaning mobile phase bottles, the methanol was prepared directly in the solvent bottle as delivered and Milli-Q was tapped into an empty methanol bottle. Furthermore, a guard column was fitted between the mobile phase and the autosampler to prevent background contamination from disturbing the analysis. All analytes were quantified against the BEHP internal standard, as it gave better reproducibility. […] The central goal of the analysis was to estimate kU and kT as well as the BCF (=kU/kT) from measurements of surfactant concentration in fish and water samples collected at different time points of the experiment. For the fish, only those time points were included for which CF(measured) was above the limit of quantitation (LOQ) in all three fish (data below the LOQ will have a positive bias; including them would result in a negative bias in kT). In this analysis, there exist two sources of uncertainty: first, uncertainty in the actual concentration in water CW at the time of sample collection and second, variability in the concentration in fish around the (expected) surfactant concentrations in fish assumed to follow model (1). We therefore set up a model in which we considered uncertainty in both water and fish measurements simultaneously by assuming a parametric model for the surfactant concentration in the water over time (either linear or quadratic) and accounted for the uncertainty in the corresponding parameters of the water model during the estimation of kU and kT. This was done in a joint Bayesian model that we estimated via Hamiltonian Monte Carlo. […]

[1] = determined using nominal concentrations in water
[2] = from measured concentrations in water, Bayesian estimate, 95% credible interval in brackets
[3] = 95% credible interval in brackets
[4] = measured concentrations in water, simpler estimation method (Text S3), 95% confidence intervals in brackets

| Compound | Log BCF | Concentration in fish (elimination phase, 97 h) | Concentration in fish (elimination phase, 98 h) | Concentration in fish (elimination phase, 100 h) | Concentration in fish (elimination phase, 103 h) | Concentration in fish (elimination phase, 120 h) | Concentration in fish (elimination phase, 128 h) | Concentration in fish (elimination phase, 144 h) | Concentration in fish (elimination phase, 168 h) | Concentration in fish (elimination phase, 192 h) | Concentration in fish (elimination phase, 264 h) | Concentration in fish (exposure phase, 1 h) | Concentration in fish (exposure phase, 2 h) | Concentration in fish (exposure phase, 3 h) | Concentration in fish (exposure phase, 4 h) | Concentration in fish (exposure phase, 6 h) | Concentration in fish (exposure phase, 24 h) | Concentration in fish (exposure phase, 48 h) | Concentration in fish (exposure phase, 72 h) | Concentration in fish (exposure phase, 96 h) | also measured |
| --- | --- | --- | --- | --- | --- | --- | --- | --- | --- | --- | --- | --- | --- | --- | --- | --- | --- | --- | --- | --- | --- |
| CCCCCCCCCCCCCCS(=O)(=O)O [C14SO3, tetradecylsulfonate] | 1.47 L kg-1 ww | 113 ng g-1 ww and 118 ng g-1 ww and 164 ng g-1 ww | 130 ng g-1 ww and 119 ng g-1 ww and 109 ng g-1 ww | 185 ng g-1 ww and 93 ng g-1 ww and 114 ng g-1 ww | 94 ng g-1 ww and 194 ng g-1 ww and 108 ng g-1 ww | 62 ng g-1 ww and 81 ng g-1 ww and 50 ng g-1 ww | 60 ng g-1 ww and 45 ng g-1 ww and 68 ng g-1 ww | 42 ng g-1 ww and 31 ng g-1 ww and 70 ng g-1 ww | 30 ng g-1 ww and 28 ng g-1 ww and 16.5 ng g-1 ww | 11.9 ng g-1 ww and 8.6 ng g-1 ww and 12.7 ng g-1 ww | 6.6 ng g-1 ww and 4.8 ng g-1 ww and 1.75 ng g-1 ww | 38 ng g-1 ww and 7.5 ng g-1 ww and 72 ng g-1 ww | 11.3 ng g-1 ww and 11.7 ng g-1 ww and 6.8 ng g-1 ww | 16.0 ng g-1 ww and 19.9 ng g-1 ww and 15.9 ng g-1 ww | 27 ng g-1 ww and 153 ng g-1 ww and 415 ng g-1 ww | 41 ng g-1 ww and 39 ng g-1 ww and 32 ng g-1 ww | 101 ng g-1 ww and 111 ng g-1 ww and 80 ng g-1 ww | 152 ng g-1 ww and 155 ng g-1 ww and 117 ng g-1 ww | 180 ng g-1 ww and 141 ng g-1 ww and 103 ng g-1 ww | 168 ng g-1 ww and 150 ng g-1 ww and 178 ng g-1 ww | BCF [1]: 32 L kg-1 ww; Elimination rate constant kT [1]: 0.028 h⁻¹; Uptake rate constant kU [1]: 0.90 L/kg/h; Elimination rate constant kT [2]: 0.024 (0.022–0.026) h^–1; Uptake rate constant kU [2]: 0.70 (0.61–0.80) L kg^–1 ww h^–1; diffusion coefficient (D) in the epithelial membrane of the gills (in vivo): 3.1 × 10^–8 m h^–1; BCF (kinetic) [3]: 30 (26–33) L kg^–1 ww; BCF [4]: 28 (8) L kg-1 ww; Elimination rate constant kT [4]: 0.026 (5) h-1; Uptake rate constant kU [4]: 0.73 (6) L kg-1 ww h-1 |
| CCCCCCCCCCCCCCCCS(=O)(=O)O [C16SO3, hexadecylsulfonate] | 3.14 L kg-1 ww | 4206 ng g-1 ww and 4275 ng g-1 ww and 4280 ng g-1 ww | 3644 ng g-1 ww and 3202 ng g-1 ww and 3035 ng g-1 ww | 4355 ng g-1 ww and 3469 ng g-1 ww and 3603 ng g-1 ww | 3251 ng g-1 ww and 4192 ng g-1 ww and 3692 ng g-1 ww | 2630 ng g-1 ww and 4641 ng g-1 ww and 2805 ng g-1 ww | 3635 ng g-1 ww and 2712 ng g-1 ww and 2831 ng g-1 ww | 2859 ng g-1 ww and 2503 ng g-1 ww and 3401 ng g-1 ww | 2804 ng g-1 ww and 2276 ng g-1 ww and 2244 ng g-1 ww | 1669 ng g-1 ww and 1852 ng g-1 ww and 2440 ng g-1 ww | 1420 ng g-1 ww and 2150 ng g-1 ww and 967 ng g-1 ww | 440 ng g-1 ww and 319 ng g-1 ww and 614 ng g-1 ww | 300 ng g-1 ww and 304 ng g-1 ww and 147 ng g-1 ww | 347 ng g-1 ww and 392 ng g-1 ww and 451 ng g-1 ww | 510 ng g-1 ww and 1310 ng g-1 ww and 2283 ng g-1 ww | 557 ng g-1 ww and 678 ng g-1 ww and 649 ng g-1 ww | 2045 ng g-1 ww and 1698 ng g-1 ww and 1479 ng g-1 ww | 3941 ng g-1 ww and 3596 ng g-1 ww and 1879 ng g-1 ww | 1532 ng g-1 ww and 3782 ng g-1 ww and 3167 ng g-1 ww | 3775 ng g-1 ww and 5248 ng g-1 ww and 3695 ng g-1 ww | Uptake rate constant kU: 6.3 L kg^–1 h^–1; Elimination rate constant kT [2]: 0.0047 (0.0026–0.0062) h^–1; Uptake rate constant kU [2]: 6.3 (5.3–7.4) L kg^–1 ww h^–1; diffusion coefficient (D) in the epithelial membrane of the gills (in vivo): 1.6 × 10^–8 m h^–1; BCF (kinetic) [3]: 1370 (1070–2200) L kg^–1 ww; BCF [4]: 1480 (14) L kg-1 ww; Elimination rate constant kT [4]: 0.0073 (10) h-1; Uptake rate constant kU [4]: 10.8 (10) L kg-1 ww h-1 |
| CCCCC(CC)COC(=O)CC(C(=O)OCC(CC)CCCC)S(=O)(=O)O (stereo not drawn) [DOSS, bis(2-ethylhexyl)sulfosuccinate] | 0.15 L kg-1 ww | 69 ng g-1 ww and 70 ng g-1 ww | 25 ng g-1 ww and 34 ng g-1 ww | 92 ng g-1 ww and 49 ng g-1 ww and 45 ng g-1 ww | 35 ng g-1 ww and 33 ng g-1 ww | 14.2 ng g-1 ww and 36 ng g-1 ww and 13.5 ng g-1 ww | 15.7 ng g-1 ww and 17.8 ng g-1 ww | 4.1 ng g-1 ww and 6.4 ng g-1 ww and 24 ng g-1 ww | 2.3 ng g-1 ww and 7.9 ng g-1 ww and 3.0 ng g-1 ww | 0.75 ng g-1 ww and 4.2 ng g-1 ww and 0.92 ng g-1 ww | 4.5 ng g-1 ww and 2.9 ng g-1 ww and 0.40 ng g-1 ww | 10.9 ng g-1 ww and 5.8 ng g-1 ww and 17.8 ng g-1 ww | 11.0 ng g-1 ww and 7.5 ng g-1 ww | 17.4 ng g-1 ww and 15.2 ng g-1 ww | 21 ng g-1 ww and 42 ng g-1 ww and 106 ng g-1 ww | 32 ng g-1 ww and 25 ng g-1 ww | 59 ng g-1 ww and 41 ng g-1 ww | 66 ng g-1 ww and 56 ng g-1 ww | 59 ng g-1 ww and 78 ng g-1 ww | 62 ng g-1 ww and 67 ng g-1 ww | Uptake rate constant kU: 0.090 L kg^–1 h^–1; BCF [1]: 3.0 L kg-1 ww; Uptake rate constant kU [1]: 0.169 L/kg/h; Uptake rate constant kU [2]: 0.090 (0.074–0.110) L kg^–1 ww h^–1; BCF (kinetic) [3]: 1.42 (1.22–1.66) L kg^–1 ww; BCF [4]: 1.37 (14) L kg-1 ww; Uptake rate constant kU [4]: 0.088 (9) L kg-1 ww h-1; BCF (own values): 1.42 L kg^–1; diffusion coefficient (D) in the epithelial membrane of the gills (solved from eq 3 with kU, DMLW, gill area, fish 0.024 kg, membrane density 1 kg L^–1): 9.3 × 10^–9 m h^–1 |
